Results: ChEMBL document CHEMBL2169841, “A simple solid phase, peptide-based fluorescent assay for the efficient and universal screening of HRV 3C protease inhibitors” (Bioorg Med Chem Lett, 2012)
In brackets after ≈: the same amount, converted by molar mass.

Assays:
Design in all cases: species or system rhinovirus B14
[1] = Inhibition of human rhinovirus 14 recombinant N-terminal GST-tagged protease 3c expressed in Escherichia coli DH5alpha using LEVLFQGPSK(Fluoro)G as substrate after 1 hr by discontinuous heterogeneous fluorometric assay
[2] = Inhibition of human rhinovirus 14 recombinant N-terminal GST-tagged protease 3c expressed in Escherichia coli DH5alpha using Staphylococcus superantigen like protein 7-thioredoxin fusion protein as substrate after 1 hr by SDS-PAGE analysis
[3] = Inhibition of human rhinovirus 14 protease 3c by HPLC analysis

`CC(=O)CC1=C(Br)C(=O)c2ccccc2C1=O` showed an IC50 [1] of 62.7 µM.

Work on `CC(O)CC1=C(Br)C(=O)c2ccccc2C1=O` (configuration not stated) yielded an IC50 [1] of 92.5 µM.

In the case of `C=CCC1=C(Br)C(=O)c2ccccc2C1=O`, the IC50 [1] is reported as 8.8 µM.

`C[C@H]1CC2=C(C(=O)c3c(O)cc(O)cc3C2=O)[C@H](O)O1` gave an IC50 [2] of 14.1 µg/mL, an IC50 [3] of 13 µg/mL (≈ 47.1 µM) and an IC50 [1] of 53 µM.

In the case of `O=C1C=C(Br)C(=O)c2ccccc21` [2-Bromo-1,4-naphthoquinone], the IC50 [1] is reported as 4.2 µM.
